# From US20210137961A1, “Compositions and Methods for Treating Dry Eye Diseases” (priority 2017, published 2021)
# What was measured:
# [1] = test system: Immortalized human meibomian gland epithelial cells (HMGECs); assay: HMGEC lysosome and neutral lipid accumulation, differentiation and proliferation; format: cell-based
# Procedure: EXAMPLE. Immortalized human meibomian gland epithelial cells (HMGECs) are cultured in the presence of vehicle or test compound, such as Soli (2, 10, or 20 μg/ml) for 1 to 7 days under proliferating (keratinocyte serum-free medium; KSFM) or differentiating (DMEM/F12 plus 10% fetal bovine serum) conditions. A positive control (epidermal growth factor and bovine pituitary extract for proliferation; Azi for differentiation) and a negative control (media only) are included with the experiments. Additional details are described in JAMA Ophthalmol 132(2): 226-228 (Feb. 1, 2014) and Current Eye Research, 1-6 (2017), each of which is incorporated herein by reference.
# HMGECs are evaluated for cell number, neutral lipid content (LipidTox) and lysosome accumulation (LysoTracker). […] Strong lysosomal effects are observed with the 10 μg/ml dose of Soli (relative stimulation=30), on the first day of dosing, and those effects are statistically different (p<0.01) from the control group (relative stimulation=13). In contrast, the 10 μg/m1Azi dose is not statistically different from the control group (relative stimulation=18) until day 3. […] Compounds described herein, such a Soli, affect lysosome and lipid accumulation and differentiation of HMGECs. The effect of Soli on lysosome appearance is faster than that of Azi.
# [2] = Corneal permeability, Franz-Cell Diffusion Apparatus; format: in vitro ADME, bovine (calf)
# Procedure: EXAMPLE. Corneal Permeability. Corneal permeability is determined using conventional protocols. Briefly, corneal permeability is determined on freshly excised bovine (calf) cornea using a Franz-Cell Diffusion Apparatus generally with n=3/group. Freshly excised calf cornea are stored until use in hydrating solution containing glutathione and buffer. The Apparatus includes a donor chamber on the top where a predetermined volume of the formulation is pipetted and a jacketed receptor cell with a sampling side arm. The joint between the donor and receptor cell is upward-convex, mimicking the shape of the cornea. The corneal membrane is placed on the ball joint with the cornea facing the donor chamber. The Apparatus is clamped to secure the cells with the donor and receptor chambers aligned. […] The volume is recorded. […] Test samples are added in rapid succession by depositing 200 μL of the formulation into each donor chamber using a calibrated pipet and the times recorded. […] Flux can be calculated by the formula: J=Q/(A·t), where Q is the quantity (micrograms) of compound traversing the membrane in time t (minutes), and A is the area of exposed membrane in cm^2. […] After completion of the diffusion, corneas are weighed to determine the quantity of bound test compound in the cornea, and the corneal thicknesses of each cornea is measured at the point of diffusion (the center) using Vernier calipers. […]
# [3] = test system: phagocytized L. pneumophila; format: cell-based
# CXCL8 = assay: LPS-induced CXCL8 (IL-8) production in PMA-differentiated U937 cells (ELISA); format: cell-based, human
# Procedure: EXAMPLE. […] Cells. The human monocytic cell line U937 was obtained from the American Type Culture Collection (ATCC, Rockville, Md.). PBMCs from COPD patients were obtained from Brompton hospital and separated by AccuSPIN (Sigma-Aldrich). […] U937 cells were differentiated into adherent macrophage-like morphology by exposure to PMA (50 ng/ml) for 48 h in complete growth medium. Cell viability was assessed microscopically by trypan blue staining. Cell toxicity was determined by MTT assay as needed. This study was approved by the ethics committee of the Royal Brompton Hospitals, and all subjects gave written informed consent. Cytokine ELISA. TNFα and IL-8 concentrations in the supernatant of cell cultures were determined by sandwich ELISA according to the manufacturer's instructions (R&D Systems Europe, Abingdon, UK). Statistical analysis. The results were expressed as the mean±SEM. Comparisons of data in two groups were performed using the Student's t test or the Wilcoxon signed rank test. Multiple comparisons were made by one-way ANOVA with post hoc test (Dunnett's) as appropriate. The difference was considered significant at p<0.05. […] Anti-inflammatory effects of solithromycin in U937 cells.
# pathogenic bacteria = format: cell-based
# MSRA = assay: MIC against MSRA (30 species); format: cell-based
# Streptococcus pneumoniae = assay: MIC against Streptococcus pneumoniae; format: cell-based
# Mycobacterium avium = assay: MIC against Mycobacterium avium; format: cell-based; conditions: N 30
# Mycoplasma hominis = assay: MIC against Mycoplasma hominis; format: cell-based; conditions: N 13
# Mycoplasma pneumoniae = assay: MIC against Mycoplasma pneumoniae; format: cell-based
# Streptococcus pyogenes = assay: MIC against Streptococcus pyogenes; format: cell-based
# [4] = Streptococcus pneumoniae, N 150
# [5] = Streptococcus pyogenes (a), N 407
smiles,measurement,setting,value
"CC[C@H]1OC(=O)[C@@](C)(F)C(=O)[C@H](C)[C@@H](O[C@@H]2O[C@H](C)C[C@H](N(C)C)[C@H]2O)[C@](C)(OC)C[C@@H](C)C(=O)[C@H](C)[C@H]2N(CCCCn3cc(-c4cccc(N)c4)nn3)C(=O)O[C@]12C [Solithromycin, solithromycin]","lysosomal effects, relative stimulation","[1]; 10 μg/ml dose, first day of dosing, LysoTracker",30
same,accumulation of neutral lipids and lysosomes in HMGECs,"[1]; 2, 10 or 20 μg/ml, 1 to 7 days",rapid and dose-dependent increase
same,proliferation of HMGECs,[1]; 7-day dosing period,does not cause unwanted proliferation
same,time after administration at which compound is observed in receptor fluid,"[2]; bovine cornea, Franz cell",≤ 1 h
same,concentration in receptor fluid,[2]; within 1 h of administration,> 1 µg/mL
same,potency relative to azithromycin,[3],100 fold
same,IC50,"CXCL8; LPS, PMA-differentiated U937 cells, read-out: IC50 on CXCL8 release",78.2 ± 9.5 µM
same,inhibition of CXCL8 (IL-8) production (in words),"CXCL8; solithromycin and telithromycin at 100 μM, clarithromycin at 333 μM",significantly inhibited
same,activity against Azi resistant strains,pathogenic bacteria,active against all Azi resistant strains tested
same,potency relative to Azi,pathogenic bacteria,8-16 fold
same,activity relative to conventional macrolides,pathogenic bacteria; greater activity,10 fold
same,intracellular activity relative to Azi,pathogenic bacteria; intracellular,10 fold
same,I = intermediate susceptibility,MSRA,0%
same,MIC50,MSRA,0.03 µg/mL
same,MIC90,MSRA,64 µg/mL
same,NS = not susceptible,MSRA,30%
same,S = susceptible,MSRA,70%
same,MIC90,Streptococcus pneumoniae; Streptococcus Pneumoniae (150 strains),0.25 µg/mL
same,MIC50,Streptococcus pneumoniae; [4],0.015 µg/mL
same,MIC90,Streptococcus pneumoniae; [4],0.25 µg/mL
same,MIC Range,Streptococcus pneumoniae; [4],≤8 to 500 ng/mL
same,MIC50,Mycobacterium avium,1 µg/mL
same,MIC90,Mycobacterium avium,1 µg/mL
same,MIC Range,Mycobacterium avium,1 µg/mL
same,MIC50,Mycoplasma hominis,4 ng/mL
same,MIC90,Mycoplasma hominis,8 ng/mL
same,MIC Range,Mycoplasma hominis,2 to 8 ng/mL
same,MIC90,Mycoplasma pneumoniae; Mycoplasma pneumoniae (38 strains),0.125 ng/mL
same,MIC50,"Mycoplasma pneumoniae; Mycoplasma pneumoniae, N 38",0.032 ng/mL
same,MIC90,"Mycoplasma pneumoniae; Mycoplasma pneumoniae, N 38",0.125 ng/mL
same,MIC Range,"Mycoplasma pneumoniae; Mycoplasma pneumoniae, N 38",≤6.3e-05 to 500 ng/mL
same,MIC90,Streptococcus pyogenes; Streptococcus Pyogenes (100 strains),0.03 µg/mL
same,MIC50,Streptococcus pyogenes; [5],≤0.03 µg/mL
same,MIC90,Streptococcus pyogenes; [5],≤0.03 µg/mL
same,MIC Range,Streptococcus pyogenes; [5],≤0.03-0.5 ^ μg/mL
same,MIC50,"Streptococcus pyogenes; Streptococcus pyogenes, N 407",≤0.03 µg/mL
same,MIC90,"Streptococcus pyogenes; Streptococcus pyogenes, N 407",≤0.03 µg/mL
same,MIC Range,"Streptococcus pyogenes; Streptococcus pyogenes, N 407",≤0.03-0.5 ^ μg/mL
